Results published in US8802635B2, “Antioxidant, anti-inflammatory, anti-radiation, metal chelating compounds and uses thereof” (Oneday—Biotech And Pharma Ltd., priority 2011, dated 2014).
Non-standard residues stand in square brackets, D forms with d. βAla = NCCC(=O)O

Experiments:
[1] = test system: JNK (c-Jun N-terminal kinases); assay: Inhibition of oxidative stress (auranofin)-induced JNK phosphorylation in SH-SY5Y cells; assay type: cell-based, Human; conditions: auranofin 5 μM
Experimental: Human neuroblastoma SH-SY5Y cells were maintained in Dulbecco's modified Eagle's medium (DMEM, Invitrogen) supplemented with 10% fetal bovine serum (Invitrogen), 100 μg/ml streptomycin and 100 U/ml penicillin G (Gibco). Cells were plated at a density of 6.25×10^4/cm^2 and incubated for 24 hours, after which they were exposed to different treatments.
SH-SY5Y cells were plated on 96-well plates and treated with Auranofin (AuF) (5 μM) for 30 min. Then the cells were washed with PBS and treated with either one of the peptides at the indicated concentrations. Twenty-four hours later, the cells were fixed with glutaraldehyde in final concentration of 0.5% for 10 min. Cells were washed 3 times with DDW dried over night, and washed once with borate buffer (0.1M, pH 8.5). The fixed cells were stained with 200 μl of 1% methylene blue dissolved in borate buffer for 1 hour. After extensive washing and drying, the color was extracted with 200 μl of 0.1 M HCl for 1 h at 37° C. and absorbance was read in spectrophotometer at 630 nm.
Twenty to thirty micrograms of protein samples were loaded on 10-12% SDS-PAGE gels. The proteins were then transferred electrophoretically to nitrocellulose (Whatman, Germany). The blots were blocked by incubation for 1 h at room temperature (RT) in TBS-T (25 mM Tris-HCl pH 7.4, 0.9% NaCl and 0.02% Tween-20) with 4% Difco skim milk (BD, USA), and incubated over-night at 4° C. with the primary antibody: pERK1/2 (Thr 202/Tyr204), mouse mAb, (1:6,000); p-SAPK/JNK (Thr183/Tyr185), rabbit mAb; SAPK/JNK, mouse mAb; p-p38MAP Kinase (Thr180/Tyr182), rabbit mAb; cleaved caspase 3, rabbit mAb. All antibodies were from Cell Signaling Tech. USA, used at 1:1000. Purified b Catenin, mouse mAb, (1:10,000; BD Transduction Laboratories, USA) diluted in 5% BSA, 0.04% Azide in TBS-T. Proteins were detected with Anti-Mouse or Anti-Rabbit IgG-HRP linked antibody (1:10,000; Cell Signaling, Tech. USA).

[2] = test system: alanine aminotransferase (ALT) in plasma / liver necrosis; assay: Concanavalin A-induced liver inflammation in C57BL/6 mice; assay type: in vivo
Experimental: Six groups of C57BL/6 female mice (7-8 weeks old) containing 6 mice in each group were injected i.p. with different peptide on days −3, −2, −1 at a dose of 50 mg/kg or with PBS alone. On day zero all the mice were injected i.v. with 250 μg/mouse of Con A and 45 min. later they were injected i.p. with 150 mg/kg of each peptide or PBS.
Eight hours after Con A injection mice were bled into heparinized tubes (approx. 150 ul of blood from each mouse) and the levels of alanine aminotransferase (ALT) was measured in the plasma.
One day later the mice were sacrificed and their livers were placed in 4% formalin and sent for pathological examination.
Next, peptide DY-66 was examined and compared to N-acetylcysteine (NAC), CB3 and CB4. The compounds were tested according to the procedure described above. ConA dose was 180 μg/mouse.
FIG. 8 presents the change in ALT levels (%) for each of the tested compounds compared to PBS treatment (i.e., the ratio between ALT levels in samples obtained from mice treated with a tested compound and ALT levels in samples obtained from PBS-treated mice)

HaCaT cells = assay: Hydrogen peroxide-induced HaCaT keratinocyte cytotoxicity (MTT); assay type: cell-based; conditions: 90 μM hydrogen peroxide 30 min; MTT after 72 hours
Experimental: All five peptides were examined in this Example, and their activity was compared to the known CB3 peptide. HaCaT cells were seeded in 96-well plate at a concentration of 10×10^4 cells/ml for 24 hours. Then cells were incubated with the peptides at the indicated concentrations for 2.5 hours followed by washing with PBS and incubation with 90 μM hydrogen peroxide (without peptide) for 30 minutes. Cells were washed with PBS and incubated with culture medium containing peptide for 72 hours. Cell viability was tested by MTT. The effect of the peptides on cell viability was performed similarly without hydrogen peroxide exposure.

carnitine = assay: Carnitine levels in mouse tissues; assay type: in vivo, mice; conditions: 250 mg/kg i.p. for 5 consecutive days
Experimental: Male ICR mice were injected i.p. with 250 mg/kg DY-65 for 5 consecutive days. Half an hour after the last injection lung, heart, skeletal muscle (femural), brain, liver, kidney and blood were removed, homogenized (100 mg tissue in 200 μl distilled water), centrifuged and filtrated through 30K Microcon® filter. Carnitine analysis was carried out by a commercial kit (BioVision, catalogue number K642-100). n=4 for each group.

ROS = ROS levels in C57Bl/6 mice after LPS injection; assay type: in vivo; conditions: 6 h after LPS
Experimental: C57BL/6 female mice (7-8 weeks old) were injected i.p. with the peptide or PBS on days −3, −2, −1 at a dose of 50 mg/kg or with PBS alone (6 mice in each group). On day zero all the mice were injected i.p. with 200 μg/mouse of LPS and 45 min. later they were injected i.p. with 150 mg/kg of the peptide. Another group of 3 mice served as normal untreated mice. […]

NF-κB = assay: Nuclear translocation of NF-κB in lung, zymosan-induced inflammation; assay type: in vivo, mice; conditions: lung tissue, 24 hours after zymosan; i.p. dosing as Example 3; p<0.05
Experimental: Male BALB/c mice were randomly allocated into the following experimental groups:
The peptides were administered by an intraperitoneal (i.p.) route of administration as described in Example 3.
The peptides were formulated in D5W as described in Example 3. The vehicle control was D5W.
At 24 hours after administration of zymosan, animals were euthanized and assessed for inflammation by an NF-κB analysis of lung tissue.
Tissues were homogenized and nuclear extracts prepared via centrifugation. […]

[3] = Metal chelation: ferric ion binding by mass spectra (ESI); conditions: 0.83 mM peptide, 1.66 mM FeCL3, 1 hour room temperature
Experimental: All five peptides were examined for their ability to bind copper and ferric ions. 0.83 mM of each peptide were mixed with 1.66 mM of either FeCL3 or CuSO4. The mixtures were incubated for 1 hour at room temperature and further kept at ° 4 C until analysis. Samples were analyzed by mass spectra (ESI).

[4] = Con A 250 μg/mouse i.v., 8 h after Con A

Substance | IC50 [1] [µM] | mice found dead ([2]; 24 hours post Con A 250 μg, 6 mice in each group) | protection of cell viability after hydrogen peroxide exposure (in words) (HaCaT cells) | increase in the level of carnitine in other tissues (carnitine) | increase in the level of carnitine in some tissues (carnitine; significant elevation) | necrotic area in liver, histo-pathological report (in words) ([2]; Con A 250 μg/mouse i.v.) | reduction of ALT average compared to PBS-treated mice [2, 4] [%] | reduction of ALT median compared to PBS-treated mice [2, 4] [%] | reduction of ALT average compared to PBS-treated mice ([2]; ConA dose 180 μg/mouse) [%] | reduction of ALT median compared to PBS-treated mice ([2]; ConA dose 180 μg/mouse) [%] | ROS levels in platelets and RBCs compared to PBS-treated mice (in words) (ROS; 50 mg/kg i.p. days -3,-2,-1 and 150 mg/kg 45 min after LPS) | ROS level in platelets, % of the level in PBS-treated mice (ROS; p<0.005) | ROS level in RBCs, % of the level in PBS-treated mice (ROS; p<0.05) | inhibition of the increase in nuclear p65 translocation (NF-κB) | FeCl binding (in words) [3]
N-acetyl-Cys-Lys-Met-Cys-NH2 (Ac-CKMC-NH2; cysteine pairing not given here) [DY-65] | 32.3 | 1 | slightly elevated cell viability | about 70% | about 150% | – | – | – | – | – | – | – | – | – | –
N-acetyl-Cys-βAla-His-Cys-NH2 (Ac-C[βAla]HC-NH2; cysteine pairing not given here) [DY-66] | 86.9 | – | slightly elevated cell viability | – | – | significant (p=0.011) decrease in necrotic area | 69 | 75 | 71 | 89 | significant reduction in ROS levels | approximately 55% | approximately 75% | ca. 80% | binding was observed
